Data from patent publication US20130065227A1, “METHODS OF INCREASING MACROPINOCYTOSIS IN CANCER CELLS” (priority 2010, published 2013).
{Fluor} = fluorophore: 5-carboxyfluorescein (FAM) or Alexa Fluor 488

Legend:
Format in all cases: cell-based
Cells = test: Antiproliferative MTT assay (FIG. 7)
Procedure: FIG. 7 are graphs showing the results of comparative experiments. (Panel A) Cells were plated in 96-well plates at low density (1,000 cells per well) and incubated 18 hrs at 37° C. to allow adherence. Cells were treated by addition of different concentrations of AS1411 (obtained from Antisoma), AS1411 (obtained from Invitrogen), tAS1411, FL-AS1411, CRO, or tCRO directly to the medium, and proliferation was measured using a 3-(4,5-dimethylthiazol-2-yl)-2,5-diphenyltetrazolium bromide assay as described previously (Bates et al., 1999, J. Biol. Chem., 274:26369-77). Points represent mean of triplicate samples with SE. (Panel B) 10 μM FL-AS1411 or 10 μM FL-CRO were added to DU145 cells plated on 6-well plates. After incubation at 37° C. for 2 hrs, cells were washed twice with ice-cold PBS and harvested by trypsin treatment. Some cells were washed twice with ice-cold PBS containing dextran sulfate ([…]) or trypan blue ([…], pH 4.4). Cells were resuspended in ice-cold PBS and immediately analyzed by flow cytometry.
Oligodeoxynucleotides were purchased from Invitrogen (Carlsbad, Calif.). […]

U937 leukemia cells = test: Cell death mechanism (DNA laddering, immunoblotting, electron microscopy)
Procedure: (A) Trypan blue staining of U937 leukemia cells showing percentage of dead cells (trypan blue positive) over time. (B) U937 cells were untreated (Un) or treated with 1 μM AS1411 (1411) or control oligonucleotide (Ctrl) for 72 h. DNA was extracted, electrophoresed on an agarose gel and stained with ethidium bromide to probe DNA laddering. As a positive control, […] were treated with UV irradiation to induce apoptosis as previously described. […] (D) U937 cells treated as described for panel B, followed by protein extraction and immunoblotting (IB) to detect PARP cleavage and Caspase-3 activation. (E) DU145 prostate cancer cells were incubated with 10 μM of AS1411 for 24 h, or irradiated with UV (300 J/m^2 with UV Stratalinker 2400, Strategene), then cultured in fresh medium for 6 h. Assessment of cell death was carried out by flow cytometry to detect Annexin V-FITC binding and PI staining.

DU145 = test: Uptake of AS1411 by macropinocytosis (MP); settings: DU145; Cancer, prostate
Procedure: FIG. 2 are graphs showing that AS1411 is internalized by different endocytic mechanisms in DU145 cancer cells and in non-malignant Hs27 cells. DU145 or Hs27 cells were plated 18 h before uptake analysis. Cells were pre-treated as described with inhibitor (gray histogram) or the corresponding vehicle control (black histogram) before addition of 10 μM FL-AS1411 and incubation at 37° C. for 2 h. After incubation, cells were harvested and analyzed by flow cytometry. Pre-treatment conditions were at 37° C. with: (Panel A) 5 μM Cytochalasin D for 30 min; (Panel B) 80 μM Dynasore for 30 min; or (Panel C) 3 mM amiloride for 1 h. All experiments were repeated at least three times and representative data are shown. Solid gray histograms represent background autofluorescence of unstained cells.
To analyze uptake of the oligodeoxynucleotides or dextran-10K (macropinocytic marker) by flow cytometry, 2×10^5 cells in fresh supplemented culture medium (2.5 ml) were plated into 6-well plates for 18 h. After complete adhesion, the cells were incubated with 5′-FAM tagged oligodeoxynucleotides or Alexa Fluor 488 tagged dextran-10K and incubated as indicated in the Description of the Drawings. Cells were washed once with ice-cold PBS, incubated with 1 μg/ml 7-amino-actinomycin D (7-AAD) for 5 min on ice or 1 μg/ml propidium iodide (PI), and washed twice with ice-cold PBS. […]

Substance	antiproliferative activity (Cells)	effect on DNA replication and cell division (U937 leukemia cells)	effect on protein synthesis (U937 leukemia cells)	induction of apoptosis markers (U937 leukemia cells; 1 μM, 72 h, UV irradiation as positive control)	cell death morphology in electron micrographs (U937 leukemia cells; 72 h)	Update by MP? (DU145)
5′-Fluor-d(TTTCCTCCTCCTCCTTCTCCTCCTCCTCC) (DNA TTTCCTCCTCCTCCTTCTCCTCCTCCTCC; DNA, 5' {Fluor}, backbone and methylation of C not given here) [FL-CRO, reference compound]	no antiproliferative activity	–	–	–	–	–
5′-d(GGTGGTGGTGGTTGTGGTGGTGGTGG) [AS1411]	–	inhibited DNA replication and cell division	not inhibited	does not induce DNA laddering, PARP cleavage, or Caspase-3 activation	necrosis-like cell death	Yes
